Test results taken from the OPERA property sets (Mansouri et al. 2018).

Settings: for log10 BCF / log10 biotransformation half-life (days): fish

SMILES | melting point [°C] | boiling point [°C] | further results
COc1ccc(C(=O)c2ccccc2)c(O)c1 | 65.5 | – | ready biodegradability: not readily biodegradable; log10 BCF: 1.97
CC(CCl)[N+](=O)[O-] (configuration not stated) | – | 172 | –
COc1cccc(OC)c1O | 56.5 | 261 | log10 Henry constant (atm·m³/mol): -6.64
CCOc1ccc(NC(=O)OC(C)C)cc1OCC | 100 | – | log10 vapour pressure (mmHg): -4.2
CCC(C)=CCl | – | 96.5 | –
C/C=C/CC(C)C | -124 | 88.1 | –
NC(=O)c1c(Cl)cccc1Cl | 198 | – | log10 Koc (L/kg): 0.53; ready biodegradability: not readily biodegradable
ClCCc1ccccc1 | – | – | ready biodegradability: not readily biodegradable
C[N+]1(C)CCCCC1 | – | – | log10 Koc (L/kg): 6
O=C(O)COc1c(Cl)ccc(Cl)c1Cl | 148 | – | –
O=C(O)[C@H]1CC=CCC1 | 17 | 234 | –
CC(=O)N[C@@H](CS)C(=O)O | 110 | – | –
FC(F)(F)S(F)(F)(F)(F)F | -87 | -20 | –
C/C=C/C=C/C | -79 | 80 | –
O=C(O)c1cc(I)cc(I)c1O | 236 | – | –
N#Cc1ccccc1[N+](=O)[O-] | 108 | – | –
Fc1ccc(Oc2ccnc3cc(Cl)cc(Cl)c23)cc1 | 107 | – | log10 vapour pressure (mmHg): -6.82
BrC(Br)C(Br)(Br)Br | 56.5 | – | –
CCCCCCC1CCCC1 | -73 | 203 | –
CC(C)(OC1CCCCC1)C(=O)O | 75 | – | –
NC[C@H]1O[C@H](O[C@H]2[C@H](O[C@@H]3O[C@H](CO)[C@@H](O)[C@H]3O)C(O)[C@H](N)C[C@@H]2N)[C@H](N)[C@@H](O)[C@@H]1O (some centres not stated) | 194 | – | –
Cc1cc(O)c(Cl)c(C)c1Cl | 83 | – | –
FC(F)(F)C(F)(F)C(F)(F)C(F)(F)C(F)(F)C(F)(F)C(F)(F)Cl | – | 108 | –
CCCCOC(=O)C(Cl)(Cl)Cl | – | 204 | –

SMILES | melting point [°C] | boiling point [°C] | further results
Clc1cc2oc3c(Cl)cc(Cl)c(Cl)c3c2cc1Cl | 237 | – | log10 vapour pressure (mmHg): -8.82
CC(C)C1CCCC1 | -111 | 126 | log10 vapour pressure (mmHg): 1.21
CC/C=C\C/C=C\C/C=C\CCCCCCCC(=O)OC | – | – | log10 vapour pressure (mmHg): -5.29
Nc1ccc(Nc2ccccc2)cc1 | 66 | 354 | log10 vapour pressure (mmHg): -4.92
CC1(c2ccccc2)C(=O)NC(=O)NC1=O | 220 | – | –
OCc1cc(Cl)cc(Cl)c1 | 80.5 | – | –
O=C(OC[C@H]1O[C@](O)(COC(=O)c2cccnc2)[C@@H](OC(=O)c2cccnc2)[C@@H]1OC(=O)c1cccnc1)c1cccnc1 | 141 | – | –
COc1ccc(CN)cc1 | – | 236 | –
CCC(CC)C(CC)CC | – | 164 | –
CCCCCCCCCCCCC#N | 9.7 | 293 | –
CC(C)CC(O)CC(C)C | – | 174 | log10 vapour pressure (mmHg): -0.519
CCCNC(=O)COC(=O)c1ccccc1 | 89.5 | – | –
c1ccc2nn(C3CCCCC3)nc2c1 | 46.5 | – | –
CC(C)c1cc(Oc2ccccc2)cc(C(C)C)c1NC(=S)NC(C)(C)C | 146 | – | –
Clc1ccccc1-c1nnc(-c2ccccc2Cl)nn1 | 182 | – | log10 Koc (L/kg): 4.66; log10 vapour pressure (mmHg): -9.01
CCC(Cl)(Cl)[N+](=O)[O-] | – | 145 | –
CCC1CCCO1 (configuration not stated) | – | 109 | –
CCCCCCCCCCCC[N+](C)(C)Cc1ccccc1 | – | – | ready biodegradability: not readily biodegradable
CC(C)OC(=O)C1(S(=O)(=O)c2ccc([N+](=O)[O-])cc2)CCC1 | 65.5 | – | –
CN1CC[C@]23C(=O)C[C@H]4C(=CCO[C@H]5CC(=O)N(c6c(O)cccc62)[C@H]3[C@H]54)C1 | 282 | – | –
C=C1[C@H]2CC[C@@H]3[C@H]2C(C)(C)CCC[C@]13C | – | 258 | –
CC(C)(C)c1ccc(N)cc1 | 17 | 241 | –
CCCCC(CC)CO[Si](OCC(CC)CCCC)(OCC(CC)CCCC)OCC(CC)CCCC (configuration not stated) | – | 419 | –
CCC(C)C(C)CC(C)C (configuration not stated) | – | 156 | –

SMILES | melting point [°C] | boiling point [°C] | further results
c1ccc(-c2cccnc2)cc1 | 164 | 272 | –
C=CCN(CC=C)C(=O)CCl | – | – | log10 Koc (L/kg): 1.3; log10 vapour pressure (mmHg): -2.03
CCCCCC(=O)Cc1cc(O)cc2c1C(=O)Oc1cc(O)c(C(=O)O)c(CCCCC)c1O2 | 205 | – | –
CC(=O)[C@H]1CC[C@H]2[C@@H]3CCC4=CC(=O)CC[C@]4(C)[C@H]3CC[C@]12C | 121 | – | –
O=[N+]([O-])c1cc([N+](=O)[O-])c2ccccc2c1 | 148 | – | –
CCC(=O)Oc1ccccc1 | 20 | 211 | –
CC(C)OC(=O)Nc1ccccc1 | 87.3 | – | log10 Koc (L/kg): 1.83; log10 vapour pressure (mmHg): -3.85
CC(C)c1ccc(OP(=O)(Oc2ccc(C(C)C)cc2)Oc2ccc(C(C)C)cc2)cc1 | – | – | ready biodegradability: not readily biodegradable
CCOC(=O)C(C)OC(=O)c1cc(Oc2ccc(C(F)(F)F)cc2Cl)ccc1[N+](=O)[O-] (configuration not stated) | 45 | – | log10 Koc (L/kg): 4
CC(Br)(CBr)COc1c(Br)cc(Br)cc1Br (configuration not stated) | – | – | ready biodegradability: not readily biodegradable
C=CC(=O)OCCO | – | 191 | log10 vapour pressure (mmHg): -1.28; ready biodegradability: readily biodegradable
CC(C)C[Si](Cl)(Cl)Cl | – | 143 | –
O=C1CCC(=O)CC1 | 78 | – | –
COc1ccc(CC#N)cc1OC | 62.8 | – | –
Cc1ncc(CO)c(C(=O)O)c1O | 248 | – | –
CCc1ccccc1-c1ccccc1CC | – | – | ready biodegradability: not readily biodegradable
CC[N+](CC)(CCNC(=O)C(=O)NCC[N+](CC)(CC)Cc1ccccc1Cl)Cc1ccccc1Cl.[Cl-].[Cl-] | 198 | – | –
Cc1ccc(CCl)c(C)c1 | – | 216 | –
ClCc1ccc2ccccc2c1 | 48.5 | – | –
Clc1cccc(Cl)c1-c1ccccc1 | – | – | log10 Henry constant (atm·m³/mol): -3.64
O=C(c1ccccc1)c1cccs1 | 56.5 | 300 | –
C[C@H]1CC[C@@]2(O)C(C)(C)[C@@H]3CC[C@@]2(C)[C@H]1C3 | 56 | – | –
CN(C)C(O)=Nc1ccc(-n2nc(C(C)(C)C)oc2=O)c(Cl)c1 | 193 | – | –
Oc1ccc2c(c1)[nH]c1ccccc12 | 272 | – | –

SMILES | melting point [°C] | boiling point [°C] | further results
NCCCNCCCCNCCCN | 29 | – | –
CCCCCCCCCCCC(=O)OCc1ccccc1 | 8.5 | – | –
O=C(C1CC1)C1CC1 | – | 161 | –
O=NN1CCCCC1 | – | 219 | –
Clc1ccc(Cl)c2c(Cl)ccc(Cl)c12 | – | – | log10 Koa: 8.45
CCCCCCCCCCCCCCCCOC(=O)C(C)O (configuration not stated) | 41 | – | –
Brc1c(Br)c(Br)c(Br)c(Br)c1Br | 326 | – | ready biodegradability: not readily biodegradable; log10 BCF: 3; log10 biotransformation half-life (days): 0.43
O=C(O)Cc1cc(O)ccc1O | 153 | – | –
CCOC(=O)c1nc(C(Cl)(Cl)Cl)n(-c2ccc(Cl)cc2Cl)n1 | 110 | – | log10 vapour pressure (mmHg): -8.18
COC(=O)CC#N | -22.5 | 200 | log10 vapour pressure (mmHg): -0.86
O=C1C(Br)=C(Br)C(=O)C(Br)=C1Br | 293 | – | –
CCOC(=O)c1cccc(O)c1 | 74 | – | ready biodegradability: readily biodegradable
CC1(C)OCCO1 | – | 92.5 | –
CC1(C)[C@H](C(=O)O[C@@H](C#N)c2cccc(Oc3ccccc3)c2)[C@@H]1C=C(Cl)Cl (single isomer, unassigned) | – | – | log10 biotransformation half-life (days): 0.7
Cc1cc2ccccc2o1 | – | 198 | log10 vapour pressure (mmHg): -0.312
Cc1cccc([N+](=O)[O-])c1O | 70 | – | log10 Henry constant (atm·m³/mol): -4.47
COCCCCl | – | 111 | –
CNC(=O)Oc1ccccc1C(C)C | 94 | – | log10 vapour pressure (mmHg): -4.68; ready biodegradability: not readily biodegradable; log10 BCF: 0.95; log10 biotransformation half-life (days): -1.25
Cn1c([N+](=O)[O-])cnc1/C=C/c1ccnc(N)n1 | 234 | – | –
COC(=O)C1(S(=O)(=O)c2ccc(Br)cc2)CCCC1 | 104 | – | –
CC(N)c1ccccc1 (configuration not stated) | – | 185 | log10 BCF: 0.82
Cc1cc(O)c(C(C)C)cc1C1(c2cc(C(C)C)c(O)cc2C)OC(=O)c2ccccc21 | 253 | – | –
COCCOC(=O)c1ccccc1C(=O)OCCOC | -45 | 340 | –
COc1ccc(C=O)cc1OC | 43 | 281 | ready biodegradability: readily biodegradable

SMILES | melting point [°C] | boiling point [°C] | further results
O=C(OCC(COC(=O)c1cccnc1)(COC(=O)c1cccnc1)COC(=O)c1cccnc1)c1cccnc1 | 162 | – | –
CCOC(=O)c1ccc(-c2ccc(C(=O)OCC)c(C(=O)OCC)c2)cc1C(=O)OCC | – | – | ready biodegradability: readily biodegradable
C(=N\C(/N=C/c1ccco1)c1ccco1)/c1ccco1 | 117 | – | –
CC1C=CC(=O)O1 (configuration not stated) | – | 209 | –
CCc1ccsc1 | -89.1 | 136 | –
COc1cc(CO)ccc1O | 115 | – | –
Cn1ccc2ccccc21 | – | 237 | –
CCCCCCOC(=O)CCC | -78 | 208 | –
O=C(Oc1ccccc1)c1ccccc1 | 71 | 314 | log10 Koc (L/kg): 3.16; log10 vapour pressure (mmHg): -2.77
CCC(C)(CO)CO | 40.3 | 226 | –
CC(=O)/C=C/C1C(C)=CCCC1(C)C (configuration not stated) | – | – | log10 vapour pressure (mmHg): -1.76
CC1=CC=C(C(C)C)CC1 | – | 175 | –
Oc1ccc2c(c1)Cc1ccccc1-2 | 168 | – | –
CC[Si](F)(CC)CC | – | 110 | log10 vapour pressure (mmHg): 1.57
CCCCCCCCCCF | -35 | 186 | log10 vapour pressure (mmHg): -0.203
CC(O)(c1ccc(Cl)cc1)c1ccc(Cl)cc1 | 70 | – | –
C[Si](C)(Oc1ccccc1)Oc1ccccc1 | -23 | – | –
Cc1cc(=O)cc(C)o1 | 132 | 251 | –
CCC1CCCS1 (configuration not stated) | – | 157 | –
NCCCCCN | 9 | 179 | –
CC(=O)N=C1C=CC(=O)C=C1 | 74.5 | – | –
Cc1cccc(-c2cccc(C)c2)c1 | 9 | 280 | –
Clc1ccc(Cl)c(Oc2ccccc2)c1 | – | – | log10 vapour pressure (mmHg): -3
CC(C)N(C(=O)COc1nnc(C(F)(F)F)s1)c1ccc(F)cc1 | 76 | – | log10 vapour pressure (mmHg): -6.17
